Source: publication PMC10117287 (RSC Advances, 2023)

Target: α-glucosidase (Saccharomyces cerevisiae, UniProt P53341)
Assay: α-glucosidase inhibitory activity
Assay type: biochemical

Chain of α-glucosidase (P53341 whole entry): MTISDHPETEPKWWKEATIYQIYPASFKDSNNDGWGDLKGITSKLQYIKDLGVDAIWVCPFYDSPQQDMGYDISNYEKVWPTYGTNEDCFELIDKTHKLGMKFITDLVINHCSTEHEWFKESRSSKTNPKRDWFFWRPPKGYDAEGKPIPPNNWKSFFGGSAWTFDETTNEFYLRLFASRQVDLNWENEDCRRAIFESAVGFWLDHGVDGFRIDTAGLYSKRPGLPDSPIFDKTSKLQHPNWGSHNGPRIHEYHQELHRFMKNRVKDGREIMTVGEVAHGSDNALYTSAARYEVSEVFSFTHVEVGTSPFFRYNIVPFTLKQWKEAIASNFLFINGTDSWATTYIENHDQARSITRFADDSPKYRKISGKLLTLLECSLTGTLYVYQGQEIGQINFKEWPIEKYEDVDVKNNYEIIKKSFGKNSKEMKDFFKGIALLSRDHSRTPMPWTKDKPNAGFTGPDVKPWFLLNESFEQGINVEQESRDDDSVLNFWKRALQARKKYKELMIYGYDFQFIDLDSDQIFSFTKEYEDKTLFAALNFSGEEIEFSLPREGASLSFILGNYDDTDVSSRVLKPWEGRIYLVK

- inhibition at 10 µM (pH 7, read-out: Inhibition (I%) 10 (μM)): > 100%
- inhibition at 20 µM (pH 7, read-out: Inhibition (I%) 20 (μM)): 99.28 ± 0.51%
- inhibition at 30 µM (pH 7, read-out: Inhibition (I%) 30 (μM)): 95.2 ± 1%
- inhibition at 40 µM (pH 7, read-out: Inhibition (I%) 40 (μM)): 81.9 ± 1.3%
- inhibition at 50 µM (pH 7, read-out: Inhibition (I%) 50 (μM)): 26 ± 1.2%
SMILES: COc1cc(-c2nc(-c3ccccc3)c(-c3ccccc3)n2-c2ccc(O)cc2)ccc1O [IMI-13]
